Experiments:
[1] = biological target: MDR1A (P-glycoprotein, ABCB1) (Mus musculus, UniProt P21447); test: Activity of mouse MDR1A expressed in pig LLC-PK1 cells assessed as efflux ratio of permeability from basolateral to apical side to apical to basolateral side at 1 uM after 2 hrs; type: ADME, cell-based
[2] = Tmax in wild-type mouse at 3 mg/kg, po; type: ADME, organism-based; parameters: dose 3 mg/kg, route oral; conditions: in vivo
[3] = Tmax in MDR1A/1B knock-out mouse at 3 mg/kg, po; type: ADME, organism-based; parameters: dose 3 mg/kg, route oral; conditions: in vivo
[4] = Cmax in wild-type mouse at 3 mg/kg, po; type: ADME, organism-based; parameters: dose 3 mg/kg, route oral; conditions: in vivo
[5] = Cmax in MDR1A/1B knock-out mouse at 3 mg/kg, po; type: ADME, organism-based; parameters: dose 3 mg/kg, route oral; conditions: in vivo
[6] = AUC in wild-type mouse at 3 mg/kg, po; type: ADME, organism-based; parameters: dose 3 mg/kg, route oral; conditions: plasma
[7] = AUC in MDR1A/1B knock-out mouse at 3 mg/kg, po; type: ADME, organism-based; parameters: dose 3 mg/kg, route oral; conditions: plasma
[8] = Ratio of drug level in brain to plasma in wild-type mouse at 3 mg/kg, po; type: ADME, organism-based; parameters: dose 3 mg/kg, route oral; conditions: brain and plasma
[9] = Ratio of drug level in brain to plasma in MDR1A/1B knock-out mouse at 3 mg/kg, po; type: ADME, organism-based; parameters: dose 3 mg/kg, route oral; conditions: brain and plasma
[10] = Solubility of the compound in phosphate buffered saline at pH 7 to 7.2; type: physicochemical
[11] = Tmax in Sprague-Dawley rat at 3 mg/kg, po; type: ADME, organism-based; parameters: dose 3 mg/kg, route oral; conditions: in vivo
[12] = Cmax in Sprague-Dawley rat at 3 mg/kg, po; type: ADME, organism-based; parameters: dose 3 mg/kg, route oral; conditions: in vivo
[13] = Half life in Sprague-Dawley rat at 3 mg/kg, po; type: ADME, organism-based; parameters: dose 3 mg/kg, route oral; conditions: in vivo
[14] = AUC in Sprague-Dawley rat at 3 mg/kg, po; type: ADME, organism-based; parameters: dose 3 mg/kg, route oral; conditions: plasma
[15] = Oral bioavailability in Sprague-Dawley rat at 3 mg/kg; type: ADME, organism-based; conditions: in vivo
[16] = Tmax in Sprague-Dawley rat at 10 mg/kg, po; type: ADME, organism-based; parameters: dose 10 mg/kg, route oral; conditions: in vivo
[17] = Cmax in Sprague-Dawley rat at 10 mg/kg, po; type: ADME, organism-based; parameters: dose 10 mg/kg, route oral; conditions: in vivo
[18] = Half life in Sprague-Dawley rat at 10 mg/kg, po; type: ADME, organism-based; parameters: dose 10 mg/kg, route oral; conditions: in vivo
[19] = AUC in Sprague-Dawley rat at 10 mg/kg, po; type: ADME, organism-based; parameters: dose 10 mg/kg, route oral; conditions: plasma
[20] = Oral bioavailability in Sprague-Dawley rat at 10 mg/kg; type: ADME, organism-based; conditions: in vivo
[21] = Tmax in Sprague-Dawley rat at 30 mg/kg, po; type: ADME, organism-based; parameters: dose 30 mg/kg, route oral; conditions: in vivo
[22] = Cmax in Sprague-Dawley rat at 30 mg/kg, po; type: ADME, organism-based; parameters: dose 30 mg/kg, route oral; conditions: in vivo
[23] = Half life in Sprague-Dawley rat at 30 mg/kg, po; type: ADME, organism-based; parameters: dose 30 mg/kg, route oral; conditions: in vivo
[24] = AUC in Sprague-Dawley rat at 30 mg/kg, po; type: ADME, organism-based; parameters: dose 30 mg/kg, route oral; conditions: plasma
[25] = Oral bioavailability in Sprague-Dawley rat at 30 mg/kg; type: ADME, organism-based; conditions: in vivo
[26] = Half life in beagle dog at 1 mg/kg, iv; type: ADME, organism-based, Canis lupus familiaris; parameters: dose 1 mg/kg, route intravenous; conditions: in vivo
[27] = AUC in beagle dog at 1 mg/kg, iv; type: ADME, organism-based, Canis lupus familiaris; parameters: dose 1 mg/kg, route intravenous; conditions: plasma
[28] = Clearance in beagle dog at 1 mg/kg, iv; type: ADME, organism-based, Canis lupus familiaris; parameters: dose 1 mg/kg, route intravenous; conditions: in vivo
[29] = Volume of distribution at steady state in beagle dog at 1 mg/kg, iv; type: ADME, organism-based, Canis lupus familiaris; parameters: dose 1 mg/kg, route intravenous; conditions: in vivo, read-out: Vdss
[30] = Tmax in beagle dog at 3 mg/kg, po; type: ADME, organism-based, Canis lupus familiaris; parameters: dose 3 mg/kg, route oral; conditions: in vivo
[31] = Cmax in beagle dog at 3 mg/kg, po; type: ADME, organism-based, Canis lupus familiaris; parameters: dose 3 mg/kg, route oral; conditions: in vivo
[32] = Half life in beagle dog at 3 mg/kg, po; type: ADME, organism-based, Canis lupus familiaris; parameters: dose 3 mg/kg, route oral; conditions: in vivo
[33] = AUC in beagle dog at 3 mg/kg, po; type: ADME, organism-based, Canis lupus familiaris; parameters: dose 3 mg/kg, route oral; conditions: plasma
[34] = Oral bioavailability in beagle dog at 3 mg/kg; type: ADME, organism-based, Canis lupus familiaris; conditions: in vivo
[35] = Tmax in beagle dog at 10 mg/kg, po; type: ADME, organism-based, Canis lupus familiaris; parameters: dose 10 mg/kg, route oral; conditions: in vivo
[36] = Cmax in beagle dog at 10 mg/kg, po; type: ADME, organism-based, Canis lupus familiaris; parameters: dose 10 mg/kg, route oral; conditions: in vivo
[37] = Half life in beagle dog at 10 mg/kg, po; type: ADME, organism-based, Canis lupus familiaris; parameters: dose 10 mg/kg, route oral; conditions: in vivo
[38] = AUC in beagle dog at 10 mg/kg, po; type: ADME, organism-based, Canis lupus familiaris; parameters: dose 10 mg/kg, route oral; conditions: plasma
[39] = Oral bioavailability in beagle dog at 10 mg/kg; type: ADME, organism-based, Canis lupus familiaris; conditions: in vivo
[40] = Half life in cynomolgus monkey at 1 mg/kg, iv; type: ADME, organism-based, Macaca fascicularis; parameters: dose 1 mg/kg, route intravenous; conditions: in vivo
[41] = AUC in cynomolgus monkey at 1 mg/kg, iv; type: ADME, organism-based, Macaca fascicularis; parameters: dose 1 mg/kg, route intravenous; conditions: plasma
[42] = Clearance in cynomolgus monkey at 1 mg/kg, iv; type: ADME, organism-based, Macaca fascicularis; parameters: dose 1 mg/kg, route intravenous; conditions: in vivo
[43] = Volume of distribution at steady state in cynomolgus monkey at 1 mg/kg, iv; type: ADME, organism-based, Macaca fascicularis; parameters: dose 1 mg/kg, route intravenous; conditions: in vivo, read-out: Vdss
[44] = Cmax in cynomolgus monkey at 3 mg/kg, po; type: ADME, organism-based, Macaca fascicularis; parameters: dose 3 mg/kg, route oral; conditions: in vivo
[45] = Half life in cynomolgus monkey at 3 mg/kg, po; type: ADME, organism-based, Macaca fascicularis; parameters: dose 3 mg/kg, route oral; conditions: in vivo
[46] = AUC in cynomolgus monkey at 3 mg/kg, po; type: ADME, organism-based, Macaca fascicularis; parameters: dose 3 mg/kg, route oral; conditions: plasma
[47] = Oral bioavailability in cynomolgus monkey at 3 mg/kg; type: ADME, organism-based, Macaca fascicularis; conditions: in vivo
[48] = Tmax in cynomolgus monkey at 10 mg/kg, po; type: ADME, organism-based, Macaca fascicularis; parameters: dose 10 mg/kg, route oral; conditions: in vivo
[49] = Cmax in cynomolgus monkey at 10 mg/kg, po; type: ADME, organism-based, Macaca fascicularis; parameters: dose 10 mg/kg, route oral; conditions: in vivo
[50] = Half life in cynomolgus monkey at 10 mg/kg, po; type: ADME, organism-based, Macaca fascicularis; parameters: dose 10 mg/kg, route oral; conditions: in vivo
[51] = AUC in cynomolgus monkey at 10 mg/kg, po; type: ADME, organism-based, Macaca fascicularis; parameters: dose 10 mg/kg, route oral; conditions: plasma
[52] = Oral bioavailability in cynomolgus monkey at 10 mg/kg; type: ADME, organism-based, Macaca fascicularis; conditions: in vivo
[53] = (§1) Drug metabolism in Sprague-Dawley rat liver microsomes after 7 mins by Michaelis-Menten plot analysis; type: ADME; conditions: Sprague-Dawley, liver microsomes
Liver microsome = test: as §1; type: ADME; conditions: microsomes, 7 min

Chain of MDR1A (P-glycoprotein, ABCB1) (P21447 whole entry): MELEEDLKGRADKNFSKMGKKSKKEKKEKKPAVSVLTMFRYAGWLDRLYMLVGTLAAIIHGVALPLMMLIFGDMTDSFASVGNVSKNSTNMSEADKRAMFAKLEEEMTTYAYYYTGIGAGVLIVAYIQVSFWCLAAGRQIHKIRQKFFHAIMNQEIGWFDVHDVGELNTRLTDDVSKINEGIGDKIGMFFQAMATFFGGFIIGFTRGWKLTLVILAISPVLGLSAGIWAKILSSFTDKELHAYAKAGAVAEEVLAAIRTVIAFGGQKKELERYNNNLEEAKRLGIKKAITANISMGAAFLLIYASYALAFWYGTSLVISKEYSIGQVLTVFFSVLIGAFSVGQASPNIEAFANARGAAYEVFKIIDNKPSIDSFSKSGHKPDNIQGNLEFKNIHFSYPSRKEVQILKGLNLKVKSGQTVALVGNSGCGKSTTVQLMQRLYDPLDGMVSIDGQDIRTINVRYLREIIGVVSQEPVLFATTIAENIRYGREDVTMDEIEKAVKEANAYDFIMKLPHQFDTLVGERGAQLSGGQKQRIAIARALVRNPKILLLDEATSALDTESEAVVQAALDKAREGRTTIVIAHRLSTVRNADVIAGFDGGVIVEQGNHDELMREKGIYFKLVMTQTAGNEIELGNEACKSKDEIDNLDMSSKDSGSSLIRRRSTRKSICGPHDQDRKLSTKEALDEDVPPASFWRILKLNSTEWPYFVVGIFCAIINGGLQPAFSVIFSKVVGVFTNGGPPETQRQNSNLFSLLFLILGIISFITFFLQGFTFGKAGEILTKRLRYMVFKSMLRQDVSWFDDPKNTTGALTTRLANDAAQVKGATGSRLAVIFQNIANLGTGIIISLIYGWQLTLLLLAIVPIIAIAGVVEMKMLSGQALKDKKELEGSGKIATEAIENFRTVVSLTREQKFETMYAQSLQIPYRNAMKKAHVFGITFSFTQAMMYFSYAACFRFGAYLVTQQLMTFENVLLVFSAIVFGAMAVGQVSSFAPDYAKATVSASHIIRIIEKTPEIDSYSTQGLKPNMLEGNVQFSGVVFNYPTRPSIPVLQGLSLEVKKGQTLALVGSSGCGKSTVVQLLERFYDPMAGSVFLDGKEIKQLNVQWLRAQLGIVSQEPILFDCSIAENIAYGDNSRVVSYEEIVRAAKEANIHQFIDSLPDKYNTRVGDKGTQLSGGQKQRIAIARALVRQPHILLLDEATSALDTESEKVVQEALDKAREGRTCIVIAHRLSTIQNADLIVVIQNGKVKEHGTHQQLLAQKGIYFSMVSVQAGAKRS

Cc1nn(C[C@H](F)CN2C3CCC2CC(OCc2cccc(F)c2)C3)c(=O)n1C (some centres undefined)
efflux ratio at 2 h, 1 µM [1]: 3.14
Tmax [2]: 30 min
Tmax [3]: 15 min
Cmax [4]: 110 ng/mL
Cmax [5]: 100 ng/mL
AUC [6]: 230 ng·h/mL
AUC [7]: 240 ng·h/mL
Kp [8]: 2.4
Kp [9]: 8.3
solubility [10]: > 2000 µg/mL
Tmax [11]: 15 min
Cmax [12]: 20 ng/mL
half-life [13]: 30 min
AUC [14]: 20 ng·h/mL
bioavailability [15]: 2.6%
Tmax [16]: 15 min
Cmax [17]: 200 ng/mL
half-life [18]: 34.2 min
AUC [19]: 170 ng·h/mL
bioavailability [20]: 5.3%
Tmax [21]: 15 min
Cmax [22]: 1360 ng/mL
half-life [23]: 81.6 min
AUC [24]: 1420 ng·h/mL
bioavailability [25]: 15.1%
half-life [26]: 62.4 min
AUC [27]: 620 ng·h/mL
clearance [28]: 28.3 mL/min/kg
Vd [29]: 1.84 L/kg
Tmax [30]: 30 min
Cmax [31]: 20 ng/mL
half-life [32]: 54.6 min
AUC [33]: 20 ng·h/mL
bioavailability [34]: 1.2%
Tmax [35]: 30 min
Cmax [36]: 1070 ng/mL
half-life [37]: 109 min
AUC [38]: 2730 ng·h/mL
bioavailability [39]: 43.7%
half-life [40]: 116 min
AUC [41]: 700 ng·h/mL
clearance [42]: 22.5 mL/min/kg
Vd [43]: 3.07 L/kg
Cmax [44]: 40 ng/mL
half-life [45]: 95.4 min
AUC [46]: 180 ng·h/mL
bioavailability [47]: 7.8%
Tmax [48]: 60 min
Cmax [49]: 470 ng/mL
half-life [50]: 177 min
AUC [51]: 1580 ng·h/mL
bioavailability [52]: 20.9%
Km at 7 min [53]: 7.23 µM
Vmax (Liver microsome): 1.42 nmol/min/mg
